Experiment [1] deals with V1a receptor knockout mice, V1b receptor knockout mice, and control mice. Nature of the experiment: Tail-flick test, development of tolerance to morphine in V1a/V1b receptor knockout and control mice (Example 1). Format: in vivo. As to conditions: 10 mg/kg s.c. once a day for 15 days, FIG. 1. As to the method:
V1a receptor knockout mice (Neuroscience Letters, 356, pp. 195-198, 2004), V1b receptor knockout mice (J. Clin. Invest., 113, pp. 302-309, 2004), and control mice (body weight: about 30 g) were subcutaneously (s.c.) given with 10 mg/kg of morphine hydrochloride once a day, which was repeated for 15 days. The analgesic effect was evaluated by the tail-flick test on 1st, 5th, 9th, 12th and 15th days after the administration on the basis of the maximal possible effect (% MPE), which represents analgesic intensity and is calculated in accordance with the following equation.
(§1) % MPE=100×[(Measured value after treatment−Measured value before treatment)[…](Cut-off value−Measured value before treatment)]

The subject of another experiment is ddY mice. Put plainly: Tail-flick test, tolerance to morphine analgesic induced by repeated morphine, with V1 receptor antagonist i.c.v. (Example 2). Format: in vivo. Conditions: male ddY mice; antagonist 0.5, 5 or 10 ng i.c.v. + morphine hydrochloride 10 mg/kg s.c. twice a day for 5 days; 1st, 3rd and 5th days; FIGS. 2 to 4. The protocol: as §1
Male ddY mice (5- or 6-week old) were intracerebroventricularly (i.c.v.) given with 5 μl of physiological saline or a V1 receptor antagonist (0.5, 5 or 10 ng), and immediately after the administration, the mice were subcutaneously given with 10 mg/kg of morphine hydrochloride, which was repeated twice a day for 5 days to induce tolerance to morphine analgesic. The analgesic effect was evaluated by the tail-flick test on 1st, 3rd and 5th days after the administration on the basis of intensity of analgesic effect using % MPE and AUC (area under the time-reaction curve, Area Under the Curve). As the V1 receptor antagonist, the following three types of antagonists were used.

On to `CN1CC[C@]23c4c5ccc(O)c4O[C@H]2[C@@H](O)C=C[C@H]3[C@H]1C5.Cl` [morphine, morphine hydrochloride], for which the “development of tolerance to analgesic effect (% MPE)” value in experiment [1] (V1a receptor knockout mice) is on record as “tolerance to morphine was developed”; in experiment [1] (V1b receptor knockout mice), “remarkable resistance against tolerance to morphine was observed”; in experiment [1] (control mice), “tolerance to morphine was developed”.

On to “[phenylacetyl, O-Me-D-Try, Arg, Lys]-vasopressin amide [PhAcALVP]”, for which the “effect on development of tolerance to morphine (% MPE and AUC)” value (from here on “effect on development … (% MPE and AUC)”) with ddY mice was “had no effect on the tolerance development”.

Turning to “[β-mercapto-β,β-cyclopentamethylenepropionyl, O-Me-Tyr, Arg]-vasopressin [d(CH2)5Tyr(Me)AVP]”, in the experiment on ddY mice, the “effect on development … (% MPE and AUC)” value is reported as “had no effect on the tolerance development”.

For “deamino-Pen, O-Me-Tyr, Arg]-vasopressin [dPenTyr(Me)AVP]”, the “effect on development … (% MPE and AUC)” value in the experiment on ddY mice is reported as “suppressed the development of tolerance”.

For the origin of these results see US20100004275A1, “AGENT FOR SUPPRESSING DEVELOPMENT OF TOLERANCE TO NARCOTIC ANALGESICS” (KYOTO UNIVERSITY, priority 2004, published 2010).
